Measured values taken from paper PMC10103840 (Frontiers in Pharmacology, 2023).
“And” between values parts separate entries of the source, which are not always exact repeats. Equal entries are not always repeated.

Legend:
[1] = System adherence test (empty perfusion chamber, maternal circuit only); assay type: in vitro ADME; conditions: % of initial concentration, 5 μM in PM, no placental tissue, 240 min, n = 3
Method: The dissolution and adherence of the compounds to the perfusion equipment and to the tubing system was assessed before starting perfusions with human placentae. […] The compounds were directly dissolved in PM at a final concentration of 5 μM (100 mL reservoir) and individually tested in three independent experiments (n = 3).

[2] = Stability assay in PBS, perfusion medium and placental homogenates; assay type: in vitro ADME, human; conditions: 360 min
Method: In short, after spiking the various matrices with the study compounds, samples were either processed immediately for U(H)PLC-MS/MS analysis (C0), or kept at 4°C/37°C on an orbital shaker (600 rpm) for 360 min before processing for U(H)PLC-MS/MS analysis. Samples were processed via solid phase extraction or protein precipitation prior to analysis.

[3] = tested on: placental tissue; test: Histopathological evaluation of perfused placentae; design: species or system human
Method: Immediately after perfusion the placentae were fixed in 4% paraformaldehyde for at least 24 h. Tissue samples from representative placental tissue sections, each from perfused, non-perfused, and transitional area were prepared to perform a pathological examination. For this purpose, the tissue was embedded in paraffin, cut (∅ 2-3 µm), and stained (standard hematoxylin-eosin stain, Braun-Brenn modified Gram stain) according to the standards of routine histopathological diagnosis of the Department of Pathology and Molecular Pathology (University Hospital of Zurich). […] The blood void and width of the intervillous space and fetal blood vessels in the chorionic villi provided information about the quality of perfusion, and particular attention was paid to the presence of intravascular thrombi. General signs of degeneration, such as vacuolization of the cytotrophoblast, villous vascular endothelium viability, and formation of hydropic villous changes compared with non-perfused tissue indicated whether tissue damage might have occurred during perfusion. Microscopic effects and placental tissue damage in the perfused area were expressed in relative amounts (%) to the non-perfused tissue.

[4] = In vitro Transwell permeability assay across BeWo b30 cell layer; conditions: human
Method: (§1) BeWo b30 choriocarcinoma cells were obtained from Dr. Tina Buerki-Thurnherr (Empa, St. Gallen, Switzerland), with permission from Dr. Alan L. Schwartz (Washington University School of Medicine, St. Louis MO, USA), and were cultivated in F-12 K Nut Mix supplemented with 10% heat inactivated FBS, antibiotics (100 U/mL penicillin, 100 µg/mL […]), and 2 mM L-glutamine (all from Gibco). The cells were cultivated in a humidified incubator at 37°C and 5% CO2 atmosphere.
(§2) BeWo b30 cells were cultured on Transwell® polycarbonate membrane inserts (24-well format; 0.4 μm pore size, 0.33 cm^2 cell growth area, 200 μL apical volume, 1′000 μL basolateral volume; Corning, Sigma-Aldrich) at a density of 60′000 cells/well. These inserts were then cultivated in a cellZscope (nanoAnalytics) at 37°C/5% CO2. Cell culture medium was replaced every 2 days up to 11 days to find the best possible conditions.
(§3) BeWo b30 cells were cultured in transparent 24-well plates under the same conditions as mentioned above and transferred to the cellZscope® at day 8 to record TER and Ccl values. After 24 h (day 9) and when a TER of 30–60 Ωcm^2 was reached and Ccl was between 0.5 and 5.0 μF/cm^2, the permeability assay was initiated by adding valerenic acid (5 μM; in HBSS with 4% BSA) to the apical compartment, while the basolateral compartment contained 1′000 μL of HBSS only. […] Samples (150 μL apical, 800 μL basolateral) were collected at each time point (0, 15, 30, 60 min; one insert per time point). After 60 min, a part of the inserts was transferred back to the cellZscope® to monitor TER and Ccl values during another 24 h. The cells grown on the other part of the inserts were quickly washed with 200 μL of cold HBSS and then lysed with 700 μL acetonitrile (100 μL apical, 600 μL basolateral) for 40 min on an orbital shaker (450 rpm, room temperature) to determine the test substance cell contents.
(§4) Apparent permeability coefficients (Papp) were calculated according to the following Eq. 1: Papp cm/s=∆Q/∆t/ACA0 (1) where ΔQ/Δt is the rate of amount transported to the receiver compartment, A is the membrane surface area (0.33 cm^2), and C A0 is the initial concentration in the apical compartment.
(§5) The clearance values were calculated according to the following Eq. 2 ([Neuhaus et al., 2008]): Clearance μL=CBnVB/CA−VB/VA∙∑CBn−1 (2) where C Bn and V B are the concentration and volume in the basolateral compartment at a specific timepoint (n), respectively; C A and VA are the concentration and volume in the apical compartment, respectively, and C Bn-1 is the total amount of substance found in the basolateral compartment up to the previous timepoint (n-1).
(§6) Recovery (mass balance) of each compound was calculated according to the following Eq. 3: Recovery %=CAfVA+CBfVB+CCfVC/CA0VA∙100 (3) where C Af , C Bf and C Cf are the final compound concentrations in apical, basolateral, and cellular compartments, respectively; C A0 is the initial concentration in the apical compartment, and V A , V B and V C are the volumes in the respective compartments.
(§7) For valerenic acid, 150 µL of the IS in MeOH were added to 50 µL of sample, and the mixture centrifuged for 20 min at 13′200 rpm/16′100 rcf at 10°C (Centrifuge 5415R, Eppendorf). An aliquot (50 µL) of the supernatant was collected and transferred into HPLC vials. Vials were centrifuged for additional 20 min prior to U(H)PLC-MS/MS analysis in full loop mode (2 µL).

[5] = tested on: BeWo b30 cells; test: as above
Method: as §1, §2, §3, §4, §5, §6, §7

[6] = tested on: human placental barrier; conditions: for Sampling (% found): amount removed by sampling during 240 min perfusion; for M perfusate (% found): maternal perfusate after 240 min
[7] = in vitro; conditions: human, pH 7.2
[8] = tested on: BeWo cells; conditions: ref Spiess et al., 2022b, cited from earlier work
[9] = Transwell control experiments across cell-free inserts; conditions: semi-permeable cell-free insert, within 60 min, 5 μM
[10] = tested on: BeWo b30 cells; test: Sodium fluorescein (NaF) exclusion assay for monolayer formation; assay type: in vitro ADME, human; conditions: day 9 after seeding, 5 μM apical, 60 min
Method: Measurement of transepithelial electrical resistance (TER) was used to assess the tightness of a cell-to-cell barrier, and the electrical capacitance Ccl, provided additional information about the properties of the cell layer (e.g., presence of microvilli and other membrane extrusions). TER and Ccl values were recorded in 15 min time intervals, using a cellZscope®. TER values were corrected for the surface area (Ωcm^2) and the reference resistance (well with the same filter insert and medium, but absence of cells). Moreover, a permeability assay with sodium fluorescein (NaF) was performed on days 7–11 (n = 3). The basolateral compartment of a transparent 24-well plate consisted of PBS only (1′000 μL) while NaF (5 μM in PBS; 200 μL) was added to the apical compartment for 60 min. The control consisted of cell-free inserts (n = 3). Basolateral samples (50 μL) were directly added to black Nunc MaxiSorp microtiter plates, and concentrations were determined using a Cytation 3 fluorescence microplate reader (BioTek Instruments; excitation wavelength 460 nm; emission wavelength 515 nm). […]
hyperforin, h ypericin, and valerenic acid. The compounds were spiked into PBS and then […]
to avoid interference of any stabilit y issues. […]
four independent experiments.
Supplementary Figure 3. Evaluation of monolayer formation using a sodium fluorescein […]
Control consists of a cell-free insert […]

[11] = non-perfused area of same placenta
[12] = after 240 min of perfusion, 5 μM added to maternal circuit
[13] = % of amount in maternal sample at beginning

For CC1=C2[C@H](/C=C(\C)C(=O)O)CC[C@@H](C)[C@H]2CC1 [Valerenic acid, valerenic acid], the “Compound lost / adhering to the perfusion equipment” value [1] was 5.6% and 5.6% ± 1.9%, the “Stability in PBS and PM” value [2] was “approx. 100%” and the “Global placental pathology: Else” value [3] was “Formation of artificial cavities in 10% of perfused areas and N and Singular non-occlusive thrombus in stem villus; CCB”. For the same compound, the Sharp transition perfused/non-perfused [3] was “Y and N”, the “Extravasations into villous stroma (in words)” value ([3]; after perfusion) was “no extravasations into villous stroma” and the “Ruptures of villous vessels (in words)” value ([3]; after perfusion) was “no ruptures of villous vessels”. For the same compound, the “Emptiness of villous vessels in non-perfused” value [3, 11] was 10% and 1%, the “Hydropic changes in non-perfused” value [3, 11] was 5% and 0% and the “Intervillous spaces without blood in non-perfused” value [3, 11] was 70% and 50% and 60% and 40%. For the same compound, the “Thrombi in villous vessels: in non-perfused too?” value [3, 11] was 1%, the “Vacuolated trophoblast in villi: in non-perfused too?” value [3, 11] was 0% and 5% and the “Thrombi in vessels of stem villi (in words)” value ([3]; perfused and non-perfused) was “no thrombi detectable”. For the same compound, the Dilatated intervillous space ([3]; perfused area) was 50% and 90% and 70%, the “Intervillous spaces without blood” value ([3]; perfused area) was 95% and the “Emptiness of villous vessels” value ([3]; perfused area, individual experiments) was 95% and 80% (2×) and 90%. The recovery at 60 min, 5 μM [4] was 73.7%, the “Passage across the placental cell layer (in words)” value ([5]; 5 μM apical, HBSS with 4% BSA, 60 min) was “did not cross the placental cell layer within 60 min” and the Papp ([5]; apical to basolateral, BeWo b30 cell layer, 5 μM) was “zero”. For the same compound, the “Concentration in the fetal compartment” value [6, 12] was 44.0 % of initial concentration, the “Concentration in the maternal compartment” value [6, 12] was 45.0 % of initial concentration and the “Sampling (% found)” value [6] was 24.1 ± 4.8%. The “F perfusate (% found)” value ([6]; fetal perfusate after 240 min, % of amount in maternal sample at beginning) was 33.1 ± 10.7% and 33.1%, the “FM ratio at 240 min” value ([6]; fetal/maternal concentration ratio, 240 min, antipyrine from control perfusions) was 1.01 and the “M perfusate (% found)” value [6, 13] was 34.4%. The “Time to equilibrium between fetal and maternal compartment” value ([6]; perfusion profiles, antipyrine as connectivity control) was 240 min, the recovery at 240 min, 5 μM [7] was 91.5% and the “Concentrations not lowering viability, no increase in apoptosis or genotoxicity, no negative effect on metabolic activity and cell differentiation” value ([8]; BeWo b30 cells) was “up to 30 μM”. For the same compound, the “Clearance across cell-free insert” value [9] was 28.3 µL.
With CC(C)=CCC[C@]1(C)[C@@H](CC=C(C)C)C[C@]2(CC=C(C)C)C(=O)C(CC=C(C)C)=C(O)[C@@]1(C(=O)C(C)C)C2=O [Hyperforin, hyperforin] the “Transplacental transfer (in words)” value ([6]; 240 min perfusion, 5 μM maternal) was “little transfer to the fetal circuit”, the “Concentration in the maternal compartment” value [6, 12] was 68.6 % of initial concentration and the “Sampling (% found)” value [6] was 21.0 ± 4.5%. The “M perfusate (% found)” value [6, 13] was 52.2 ± 21.5% and 52.2% and the “Concentration with increased apoptosis / apoptotic effects” value [8] was no less than 3000 nM.
In the case of O=C([O-])c1ccccc1-c1c2ccc(=O)cc-2oc2cc([O-])ccc12.[Na+].[Na+] [NaF, sodium fluorescein], the “Basolateral amount of NaF” value [10] is reported as 2.8 % of the initial NaF concentration.
